Read-outs that look alike come from different tables or passages of the source.
Assays:
[1] = in vitro; conditions: human, HFF-1 cells
[2] = test system: Leishmania infantum MHOM/MA(BE)/67/ITMAP263 intracellular amastigotes; assay: microbe, parasite or virus in culture; conditions: Macrophage, in Mus musculus
[3] = test system: Trypanosoma cruzi, Tulahuen CL2, beta-galactosidase strain; assay: microbe, parasite or virus in culture; conditions: MRC5, read-out: T. cruzi Tulahuen C4 (LacZ) IC50 (uM)
[4] = in vitro; conditions: human
[5] = in vitro; conditions: human, HepG2 cells
[6] = test system: primary peritoneal mouse macrophages (PMM); assay: cells; conditions: Macrophage, read-out: PMM IC50 (uM)
[7] = in vitro; conditions: PAMPA
[8] = physchem; conditions: HPLC, Ascentis Express RP Amide column, pH 7.4, eLogD, experimental
[9] = in vitro; conditions: mouse, microsomes, pH 7.4, MLM CLint (uL/min/mg), mouse liver microsomes
[10] = in vitro; conditions: human, microsomes, pH 7.4, HLM CLint (uL/min/mg), human liver microsomes
[11] = read-out: L. Inf. pIC50, from L. infantum intracellular amastigote IC50 (converted)
[12] = read-out: L. infantum MHOM/MA(BE)/67/ITMAP263 intracellular amastigotes IC50 (uM), intracellular amastigotes

Compound | CC50 [1] [µM] | IC50 [2, 11] [µM] | IC50 [2, 12] [µM] | IC50 [3] [µM] | CC50 at 3 days [4] [µM] | CC50 [5] [µM] | IC50 [6] [µM] | Papp [7] [×10⁻⁶ cm/s] | chromatographic logD [8] | microsomal CLint at 0.5 μM [9] [µL/min/mg] | microsomal CLint at 0.5 μM [10] [µL/min/mg]
O=S(=O)(c1cc(F)ccc1F)N(Cc1ccccc1)C(CO)c1ccc(F)cc1 (stereo not shown) [DNDI0003378486] | 1.67 | 35.5 | 35.5 | 13.7 | 21.2 | 24.4 | > 64 | – | – | – | –
COCCN(Cc1ccccc1)S(=O)(=O)c1cc(C(=O)NC2COC2)ccc1OC [DNDI0003392129] | – | 15.5 | 15.5 | > 64 | > 64 | – | > 64 | 4.72 | 2.7 | 114 | 39
O=[N+]([O-])c1ccc(Cl)cc1S(=O)(=O)N(Cc1ccccc1)Cc1ccc(F)cc1 [DNDI0003389123] | > 64 | > 64 | > 64 | 26.4 | > 64 | > 64 | > 64 | – | 5.1 | – | –
O=S(=O)(c1ccccn1)N(Cc1ccccc1)Cc1ccccc1 [DNDI0003389646] | 33.8 | 16.2 | 16.1 | 27.7 | > 64 | > 64 | > 64 | 9.55 | 4 | 449 | 218
COc1ccc(Cl)cc1S(=O)(=O)N(Cc1ccccc1)C(CO)CO [DNDI0003389933] | > 64 | 57.5 | 57 | 14.3 | > 64 | > 64 | > 64 | 13.2 | 3.2 | 253 | 109
COc1ccc(CN(Cc2ccc(F)cc2)S(=O)(=O)c2cc(C#N)ccc2OC)cc1 [DNDI0003371172] | 22.6 | 2.95 | 2.92 | 13.2 | > 64 | 35.3 | > 64 | – | – | – | –
COc1ccc(CN(Cc2ccc(F)cc2)S(=O)(=O)c2cc(OC)ccc2OC)cc1 [DNDI0003388087] | 2.44 | 11.2 | 11.3 | 9.04 | 5.42 | 33.2 | > 64 | – | 3.5 | 19 | 80
N#Cc1ccccc1S(=O)(=O)N(Cc1ccccc1)Cc1ccccc1 [DNDI0003389641] | 1.28 | 11.2 | 11.3 | 18.4 | > 64 | > 64 | > 64 | 1.66 | 4.2 | – | 577
COc1ccc(OC)c(S(=O)(=O)N(Cc2ccc(F)cc2)Cc2ccnn2C)c1 [DNDI0003389129] | 26.3 | 5.13 | 5.19 | 21.1 | > 64 | > 64 | 45.2 | 35.6 | – | 1090 | 207
COCCN(Cc1ccc(F)cc1)S(=O)(=O)c1cc(C(=O)N2CCOCC2)ccc1OC [DNDI0003392125] | – | 22.4 | 22.5 | > 64 | 22.7 | – | > 64 | 15.4 | – | 60 | 28
COc1ccc(C(=O)N2CCOCC2)cc1S(=O)(=O)N(Cc1ccc(F)cc1)CC(C)C [DNDI0003389127] | 8.25 | 6.92 | 6.86 | 39.1 | > 64 | > 64 | > 64 | 17.7 | – | 355 | 543
COc1ccc(CN(Cc2ccc(F)cc2)S(=O)(=O)c2cc(F)ccc2F)cc1 [DNDI0003388150] | > 64 | 57.5 | 57 | 54.4 | > 64 | > 64 | > 64 | – | – | – | –
COc1ccc(C#N)cc1S(=O)(=O)N(Cc1ccc(F)cc1)C1CCOCC1 [DNDI0003388084] | 44.1 | > 64 | > 64 | 53.1 | > 64 | > 64 | > 64 | 12.7 | – | 253 | 194

Source: paper PMC8126888 (RSC Medicinal Chemistry, 2020)
